Measurements from article PMC9518246, “Design and synthesis of new indole drug candidates to treat Alzheimer’s disease and targeting neuro-inflammation using a multi-target-directed ligand (MTDL) strategy” (Journal of Enzyme Inhibition and Medicinal Chemistry, 2022).
Values joined by “and” are separate entries in the source; they are usually repeats but may differ in a detail not shown here. Identical values can stand only once.

What was measured:
AChE = AChE (Homo sapiens, UniProt P22303); assay: biochemical; conditions: for IC50: modified Ellman, read-out: AChE inhibitory activity IC50
Description: (§1) The effects of twenty synthetic compounds were evaluated for AChE and BuChE inhibition using the modified method of Ellman et al.[33] […] AChE and BuChE are found in the brains of mammals. Genetically, structurally, and kinetically, the two kinds vary. In the human brain, BuChE is found in glial cells and neurons as well as in plaques and tangles in AD patients. […] BuChE may replace AChE by hydrolysing brain acetylcholine in some conditions, such as in mice nullizygote for AChE or in AD patients in advanced stages of the disease[34]^,[35].

Aβ1–42 = target: T1, Aβ1–42 (Homo sapiens, UniProt P05067); assay: Inhibition of Aβ1-42 self-induced aggregation (BioVision ligand screening kit); assay type: biochemical; conditions: µM
T1 construct: purchased BioVision K570-100
Description: Screening Aβ42 ligands that could prevent aggregation is critical for developing potential therapeutic treatments. In BioVision’s Beta-Amyloid 1–42 (Aβ42) Ligand Screening kit, a dye binds to the beta-sheets of an aggregated amyloid peptide resulting in an intense fluorescent product at wave length 450 nm using a BIOLINE ELISA reader. In the presence of an Aβ42 ligand, this reaction is impeded/abolished resulting in a decrease or total loss of fluorescence. This assay is useful in screening Aβ42 ligands for developing potential therapeutic agents against AD[42]. The assessment was performed according to BioVision’s Beta-Amyloid 1–42 (Aβ42) Ligand Screening Kit Catalog No. K570-100.

BuChE = BuChE (Homo sapiens, UniProt P06276); assay: biochemical; conditions: modified Ellman; read-out: BuChE inhibitory activity IC50
Description: as §1

Sequence of AChE (P22303 32-614): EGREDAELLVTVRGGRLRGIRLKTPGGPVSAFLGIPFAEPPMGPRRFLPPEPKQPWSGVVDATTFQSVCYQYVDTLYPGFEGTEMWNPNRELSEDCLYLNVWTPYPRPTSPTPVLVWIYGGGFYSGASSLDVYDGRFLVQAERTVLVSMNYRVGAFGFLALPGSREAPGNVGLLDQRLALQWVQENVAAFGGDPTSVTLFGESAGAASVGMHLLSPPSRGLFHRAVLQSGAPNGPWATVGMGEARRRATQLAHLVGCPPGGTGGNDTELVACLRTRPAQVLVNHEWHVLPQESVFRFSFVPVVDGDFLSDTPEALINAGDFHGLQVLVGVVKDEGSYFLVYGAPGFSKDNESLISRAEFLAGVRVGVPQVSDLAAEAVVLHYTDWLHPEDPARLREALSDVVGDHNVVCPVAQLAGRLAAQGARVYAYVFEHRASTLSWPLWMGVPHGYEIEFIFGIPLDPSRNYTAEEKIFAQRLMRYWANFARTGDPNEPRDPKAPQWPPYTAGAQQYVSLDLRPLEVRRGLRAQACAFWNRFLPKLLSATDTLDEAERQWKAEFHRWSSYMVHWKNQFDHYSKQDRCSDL
Sequence of BuChE (P06276 29-602): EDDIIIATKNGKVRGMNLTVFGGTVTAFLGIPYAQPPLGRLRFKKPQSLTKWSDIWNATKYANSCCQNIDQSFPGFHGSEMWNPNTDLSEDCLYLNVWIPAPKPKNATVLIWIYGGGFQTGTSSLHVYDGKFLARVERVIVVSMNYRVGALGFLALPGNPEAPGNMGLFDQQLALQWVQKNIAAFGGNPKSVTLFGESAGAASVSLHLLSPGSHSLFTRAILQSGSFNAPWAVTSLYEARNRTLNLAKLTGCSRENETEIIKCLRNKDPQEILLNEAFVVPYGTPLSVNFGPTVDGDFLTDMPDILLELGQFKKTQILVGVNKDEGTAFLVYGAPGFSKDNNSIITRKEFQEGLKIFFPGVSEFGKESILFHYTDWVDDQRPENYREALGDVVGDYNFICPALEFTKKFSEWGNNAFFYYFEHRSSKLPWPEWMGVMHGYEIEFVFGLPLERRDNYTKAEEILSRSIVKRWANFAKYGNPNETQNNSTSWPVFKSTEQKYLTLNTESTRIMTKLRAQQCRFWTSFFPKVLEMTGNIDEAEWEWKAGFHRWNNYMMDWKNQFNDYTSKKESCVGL
T1 sequence (P05067 672-713 limits assumed): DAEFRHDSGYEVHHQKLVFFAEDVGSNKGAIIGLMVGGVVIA

Row | Compound | AChE inhibition in words, compared to reference drugs (tacrine and donepezil) (AChE) | IC50 (Aβ1–42) [µM] | IC50 (BuChE) | IC50 (AChE) [nM] | also measured
1 | CS(=O)(=O)n1cc(/C=C(/C(=O)O)c2ccccc2)c2ccccc21 | – | – | – | – | melting point: 181 to 183 °C
2 | COc1cc(CC(=O)Nc2ccc(C(=O)/C=C/c3cn(S(C)(=O)=O)c4ccccc34)cc2)cc(OC)c1OC | – | – | – | – | melting point: 176 to 178 °C
3 | CS(=O)(=O)n1cc(/C=N/NC(=O)c2ccccc2)c2ccccc21 | – | – | – | – | melting point: 114 to 116 °C
4 | COc1cc(-c2c(C#N)c(N)n(/N=C/c3cn(S(C)(=O)=O)c4ccccc34)c(=O)c2C#N)cc(OC)c1OC | – | – | – | – | melting point: 210 to 212 °C
5 | CS(=O)(=O)n1cc(/C=C(/C(=O)O)c2ccc(Cl)cc2)c2ccccc21 [Compound 3b, (E)-2–(4-Chlorophenyl)-3-[1-(methylsulfonyl)-1H-indol-3-yl]acrylic acid] | less activity | – | – | – | –
6 | COc1cc(/C(=C\c2cn(S(C)(=O)=O)c3ccccc23)C(=O)O)cc(OC)c1OC [Compound 3c, (E)-3-[1-(Methylsulfonyl)-1H-indol-3-yl]-2–(3,4,5-trimethoxyphenyl)acrylic acid] | – | 6.91 | 117 nM | 41.1 | –
7 | CS(=O)(=O)n1cc(/C=C(\C(=O)N2CCCCC2)c2ccc(Cl)cc2)c2ccccc21 [Compound 4a, (E)-2–(4-Chlorophenyl)-3-[1-(methylsulfonyl)-1H-indol-3-yl]-1-(pipridin-1-yl)prop-2-en-1-one] | – | 22.4 | 41.7 to 74.1 nM and 36.9 to 80.4 nM | 132 to 164 | –
8 | CS(=O)(=O)n1cc(/C=C(/C(=O)Nc2cccnc2)c2ccc(Cl)cc2)c2ccccc21 [Compound 4b, (E)-2–(4-Chlorophenyl)-3-[1-(methylsulfonyl)-1H-indol-3-yl]-N-(pyridin-3-yl)acrylamide] | – | 13.8 | 41.7 to 74.1 nM and 36.9 to 80.4 nM | 132 to 164 | –
9 | CS(=O)(=O)n1cc(/C=C(\C(=O)N2CCN(c3ncccn3)CC2)c2ccc(Cl)cc2)c2ccccc21 [Compound 4c, (E)-2–(4-Chlorophenyl)-3-[1-(methylsulfonyl)-1H-indol-3-yl]-1-[4-(pyrimidin-2-yl)piprazin-1-yl]prop-2-en-1-one] | less activity | – | – | – | –
10 | CS(=O)(=O)n1cc(C=C(C(=O)N2CCC(Cc3ccccc3)CC2)c2ccc(Cl)cc2)c2ccccc21 [Compound 4d, (E)-1–(4-Benzylpipridin-1-yl)-2–(4-chlorophenyl)-3-[1-(methylsulfonyl)-1H-indol-3-yl]prop-2-en-1-one] | – | 8.76 | 41.7 to 74.1 nM and 36.9 to 80.4 nM | 132 to 164 | –
11 | CS(=O)(=O)n1cc(/C=C/C(=O)c2ccc(NC(=O)Cc3ccccc3)cc2)c2ccccc21 [Compound 5a, (E)-N-{4-[3–(1-(methylsulfonyl)-1H-indol-3-yl)acryloyl]phenyl}-2-phenylacetamide] | less activity | – | – | – | –
12 | CS(=O)(=O)n1cc(/C=C/C(=O)c2cccc(NC(=O)CN3CCC(Cc4ccccc4)CC3)c2)c2ccccc21 [Compound 6a, (E)-2–(4-Benzylpiperidin-1-yl)-N-{3-[3–(1-(methylsulfonyl)-1H-indol-3-yl)acryloyl]phenyl}acetamide] | less activity | – | – | – | –
13 | CS(=O)(=O)n1cc(/C=N/NC(=O)Cc2ccccc2)c2ccccc21 [Compound 7b, (E)-N'-{[1-(Methylsulfonyl)-1H-indol-3-yl]methylene}-2-phenylacetohydrazide] | less activity | – | – | – | –
14 | CS(=O)(=O)n1cc(/C=N/NC(=O)Cc2ccc(Cl)cc2)c2ccccc21 [Compound 7c, (E)-2–(4-Chlorophenyl)-N'-{[1-(methylsulfonyl)-1H-indol-3-yl]methylene}acetohydrazide] | – | 14.9 | 76 nM | 89.1 | –
15 | COc1ccc(-c2c(C#N)c(N)n(/N=C/c3cn(S(C)(=O)=O)c4ccccc34)c(=O)c2C#N)cc1 [Compound 9a, (E)-6-Amino-4-(4-methoxyphenyl)-1-{[(1-(methylsulfonyl)-1H-indol-3-yl)methylene]amino}-2-oxo-1,2-dihydropyridine-3,5-dicarbonitrile] | less activity | – | – | – | –
16 | COc1ccc(-c2c(C#N)c(N)n(/N=C/c3cn(S(C)(=O)=O)c4ccccc34)c(=O)c2C#N)cc1OC [Compound 9b, (E)-6-Amino-4–(3,4-dimethoxyphenyl)-1-{[(1-(methylsulfonyl)-1H-indol-3-yl)methylene]amino}-2-oxo-1,2-dihydropyridine-3,5-dicarbonitrile] | less activity | – | – | – | –
17 | CCn1c(N)c(C(=O)N/N=C/c2cn(S(C)(=O)=O)c3ccccc23)sc1=S [Compound 10a, (E)-4-Amino-3-ethyl-N'-{[1-(methylsulfonyl)-1H-indol-3-yl]methylene}-2-thioxo-2,3-dihydrothiazole-5-carbohydrazide] | less activity | – | – | – | –
18 | CS(=O)(=O)n1cc(/C=N/NC(=O)c2sc(=S)n(-c3ccccc3)c2N)c2ccccc21 [Compound 10b, (E)-4-Amino-N'-{[1-(methylsulfonyl)-1H-indol-3-yl]methylene}-3-phenyl-2-thioxo-2,3-dihydrothiazole-5-carbohydrazide] | – | 5.16 | 47.4 nM | 64.5 | –
